According to patent US10517889B2, “Modulators of SMAD7 expression” (Ionis Pharmaceuticals, Inc., priority 2017, dated 2019):
Strand notation (5' to 3'): a small letter for the sugar, then the base; units joined by * are phosphorothioate-linked, units joined directly phosphodiester-linked; [ ] holds rarer units or linkages, { } end groups; capitals alone tell only the bases. k = constrained ethyl (cEt); [5mC] = 5-methylcytosine; d = 2'-deoxy (DNA)

Columns and labels:
human SMAD7 mRNA [1] = experiment: Antisense inhibition of human SMAD7 mRNA expression in Hep3B cells by 3-10-3 cEt gapmers, 10,000 nM, electroporation (Example 2); type: cell-based; details: Hep3B cells, electroporation with 10,000 nM antisense oligonucleotide, approximately 24 hours, SMAD7 mRNA by RT-PCR (RTS5062), relative to untreated control cells
Outline: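 Percent inhibition of SMAD7 mRNA, relative to untreated cells, after ~24 h exposure of electroporated Hep3B cells to 10,000 nM cEt gapmer; levels by qRT-PCR, corrected for total RNA.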

human SMAD7 mRNA [2] = experiment: Dose-dependent inhibition of human SMAD7 mRNA expression in Hep3B cells (Example 3, Study 1 and 2); type: cell-based; details: electroporation; for % inhibition of SMAD7 mRNA expression: approximately 16 hours; for IC50: Study 2 (740-20000 nM)
Outline: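 Hep3B cells, 20,000 per well, electroporated with antisense oligonucleotide at 0.31, 1.25, 5.00 or 20.00 μM (first series) or 0.74, 2.22, 6.67 or 20.00 μM (second series). After ~16 h, SMAD7 mRNA measured by RT-qPCR (RTS5062), normalised to RIBOGREEN total RNA. Percent inhibition vs untreated cells; IC50 derived.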

[3] = 740 nM, Study 2, relative to untreated control cells

Substance | % Inhibition (human SMAD7 mRNA [1]) [%] | % inhibition of SMAD7 mRNA expression (human SMAD7 mRNA [2]; [3]) [%] | % inhibition of SMAD7 mRNA expression (human SMAD7 mRNA [2]; 2220 nM, Study 2) [%] | % inhibition of SMAD7 mRNA expression (human SMAD7 mRNA [2]; 6670.0 nM, Study 2) [%] | % inhibition of SMAD7 mRNA expression (human SMAD7 mRNA [2]; 20000.0 nM, Study 2) [%] | IC50 (human SMAD7 mRNA [2]) [µM]
830097 (k[5mC]*k[5mC]*kA*dT*d[5mC]*dT*dA*dA*d[5mC]*dA*dA*d[5mC]*dA*kT*k[5mC]*k[5mC]; antisense) [compound 830097] | 68 | 29 | 60 | 78 | 86 | 1
830099 (kG*k[5mC]*k[5mC]*dT*dT*dT*dG*dG*dA*dA*dT*dT*dA*kG*kT*kA; antisense) [compound 830099] | 79 | 42 | 56 | 70 | 92 | 10
830100 (kG*kG*kA*dG*d[5mC]*dT*d[5mC]*dA*dA*dA*d[5mC]*dT*dT*kT*kG*kA; antisense) [compound 830100] | 61 | 3 | 8 | 38 | 69 | 2
830122 (kG*kA*kG*dA*dA*dT*d[5mC]*dA*dA*dG*d[5mC]*d[5mC]*d[5mC]*kT*kG*kG; antisense) [compound 830122] | 57 | 28 | 54 | 66 | 74 | 3
830128 (antisense kA*k[5mC]*k[5mC]*dT*d[5mC]*d[5mC]*dG*dA*dG*dG*d[5mC]*dA*d[5mC]*k[5mC]*kA*k[5mC]) [compound 830128] | 87 | 20 | 55 | 74 | 85 | 3
830131 (antisense k[5mC]*k[5mC]*k[5mC]*dA*d[5mC]*d[5mC]*dT*d[5mC]*d[5mC]*dG*dA*dG*dG*k[5mC]*kA*k[5mC]) [compound 830131] | 68 | 34 | 48 | 51 | 61 | 5
830135 (antisense kA*kA*kG*dT*dA*d[5mC]*dA*dA*dT*d[5mC]*dT*d[5mC]*d[5mC]*kT*kG*kG) [compound 830135] | 64 | 16 | 44 | 56 | 71 | 5
830137 (antisense kA*kT*kG*dA*dA*dA*dG*dT*dA*d[5mC]*dA*dA*dT*k[5mC]*kT*k[5mC]) [compound 830137] | 68 | 19 | 46 | 63 | 84 | 3
830138 (antisense kG*kG*kA*dG*dT*dT*dG*d[5mC]*dA*dT*dG*d[5mC]*d[5mC]*kT*kT*kT) [compound 830138] | 71 | 0 | 40 | 61 | 87 | 5
830142 (antisense kT*kG*kT*dG*d[5mC]*dA*d[5mC]*d[5mC]*dA*dG*dG*dT*dG*kA*kG*k[5mC]) [compound 830142] | 60 | 13 | 37 | 32 | 49 | > 20
830144 (antisense kG*kG*kG*dT*dG*dT*dG*d[5mC]*dA*d[5mC]*d[5mC]*dA*dG*kG*kT*kG) [compound 830144] | 66 | 47 | 68 | 85 | 96 | 1
830157 (antisense kG*kA*kA*d[5mC]*dT*dG*dT*dG*d[5mC]*d[5mC]*dT*d[5mC]*dA*kG*k[5mC]*kA) [compound 830157] | 70 | 24 | 50 | 73 | 81 | 3
830163 (antisense k[5mC]*kA*kA*d[5mC]*dT*dG*dA*dA*dG*dG*dT*dG*dA*k[5mC]*k[5mC]*k[5mC]) [compound 830163] | 60 | 33 | 49 | 73 | 84 | 2
830168 (antisense kA*kT*kG*d[5mC]*dT*dT*dT*dT*dA*d[5mC]*dA*d[5mC]*dA*k[5mC]*k[5mC]*k[5mC]) [compound 830168] | 81 | 31 | 46 | 65 | 73 | 3
830170 (antisense kG*k[5mC]*kT*d[5mC]*dT*dG*dT*dT*dT*dG*dG*dA*d[5mC]*kA*kA*kG) [compound 830170] | 60 | 1 | 39 | 54 | 67 | 6
830180 (antisense k[5mC]*kG*kT*dG*dT*dA*d[5mC]*d[5mC]*d[5mC]*dA*dG*d[5mC]*dT*kG*k[5mC]*k[5mC]) [compound 830180] | 62 | 21 | 39 | 43 | 64 | 8
830207 (kA*kG*kG*dT*dG*dA*d[5mC]*dT*d[5mC]*dA*dT*d[5mC]*dA*kG*kG*k[5mC]; antisense) [compound 830207] | 80 | 49 | 74 | 85 | 93 | 1
830208 (kA*kA*kG*dG*dT*dG*dA*d[5mC]*dT*d[5mC]*dA*dT*d[5mC]*kA*kG*kG; antisense) [compound 830208] | 57 | 38 | 70 | 79 | 90 | 1
